Series [1] has as its target T1, Proteinase-activated receptor 1 (Homo sapiens) (UniProt P25116).
T1 sequence (whole entry): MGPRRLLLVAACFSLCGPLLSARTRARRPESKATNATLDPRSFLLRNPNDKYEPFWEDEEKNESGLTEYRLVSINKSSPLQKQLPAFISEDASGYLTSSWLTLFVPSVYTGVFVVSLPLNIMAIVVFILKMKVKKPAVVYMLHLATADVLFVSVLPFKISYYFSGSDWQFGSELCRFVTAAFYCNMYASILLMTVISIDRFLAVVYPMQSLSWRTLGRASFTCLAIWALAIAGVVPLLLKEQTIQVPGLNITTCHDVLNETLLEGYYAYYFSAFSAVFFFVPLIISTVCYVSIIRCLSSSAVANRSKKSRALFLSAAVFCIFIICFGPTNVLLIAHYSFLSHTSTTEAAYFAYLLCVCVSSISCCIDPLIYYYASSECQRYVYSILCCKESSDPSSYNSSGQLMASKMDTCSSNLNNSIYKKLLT
The series is described as follows: Antagonist activity at PAR1 expressed in CHO cells assessed as inhibition of SFLLR-induced intracellular calcium release at 10 uM. The format is functional, cell-based.

The test system of another series is Platelet. The series is described as follows: Inhibition of SFLLR-induced aggregation in human platelets. The format is functional.
The nature of series [2]: Metabolic stability in human liver microsomes assessed as parent compound remaining after 60 mins. The format is ADME, Microsome. Particulars: read-out: Stability. (Liver microsomes are a subcellular fraction often used to study metabolism.)
The test system of another series is Rattus norvegicus. The series is described as follows: Antithrombotic activity in rat arterio-venous shunt model of thrombosis assessed as increase in occlusion time at 1.25 mg/kg, iv. It counts as functional.
A short description of series [3]: Metabolic stability in rat liver microsomes assessed as parent compound remaining after 60 mins. The format is ADME, Microsome. Particulars: read-out: Stability.
The target of series [4] is T1, Proteinase-activated receptor 1 (Homo sapiens). The series is described as follows: Antagonist activity at PAR1 expressed in CHO cells assessed as inhibition of SFLLR-induced intracellular calcium release. The format is functional, cell-based. In general terms: Calcium flux is commonly read through the fluorescence of an indicator in the cells.

Data on 45 compounds can be found in ChEMBL document CHEMBL1159068, “Discovery and SAR of small molecule PAR1 antagonists” (Bioorg Med Chem Lett, 2010).

The term inhibition denotes the percentage by which the read-out fell short of the control. One may read the pKb as −log10 of the Kb, conventionally taken in molar units.

With `CCCCOC(c1ccc(Cl)cc1)C(SC(C)(C)C)n1ccnc1` (stereo not drawn), in series [1], the inhibition turned out to be 33%.
`CCOC(c1ccc(Cl)cc1)C(SC1CCCCC1)n1ccnc1` (stereo not drawn): in series [1], the inhibition is 3%.
As to `CCOC(c1ccccc1Cl)C(SC(C)(C)C)n1cnc(C)c1` (stereo not drawn), the negative-log Kb (pKb) in the series with Platelet is recorded as 5.21. In addition, the inhibition in series [1] turned out to be 100%.
In the series with Platelet, `CCOC(c1cccc(Cl)c1)C(SC(C)(C)C)n1cnc(C)c1` (stereo not drawn) returned a negative logarithm of the Kb (pKb) of 4.96. The inhibition in series [1] was determined as 100%.
`CCOC(c1ccc(Cl)cc1)C(SC(C)(C)C)n1cncn1` (stereo not drawn) returned a pKb with Platelet of 4.64. Further, the inhibition in series [1] is 99%.
Regarding `CCCCCSC(C(OCC)c1ccc(Cl)cc1)n1ccnc1` (stereo not drawn), the inhibition in series [1] is 19%.
With `CCOC(c1ccc(Cl)cc1)C(OC(C)(C)C)n1ccnc1` (stereo not drawn), the pKb in the series on Platelet stood at 4.54. For the same compound, the remaining at 1 h in series [2] was found to be 74%; in series [3], 25%. In the series on Rattus norvegicus, the Activity was 0%. Moreover, in series [1], the inhibition came to 85%.
In the series with Platelet, `CCCOC(c1ccc(Cl)c(Cl)c1)C(OC(C)(C)C)n1ccnc1` (stereo not drawn) showed a pKb of 5.04. The inhibition in series [1] was 93%.
`CCOC(c1ccc(Cl)cc1)C(SC(C)(C)C)n1ccnc1` (stereo not drawn): the pKb with Platelet is recorded as 5.05. Also, the inhibition in series [1] was determined as 99%.
With `CC(C)(C)SC(C(O)c1ccc(Cl)cc1)n1ccnc1` (stereo not drawn), the inhibition in series [1] amounted to 11%.
In the series with Platelet, `CCOC(c1ccc2sccc2c1)C(SC(C)(C)C)n1ccnc1` (stereo not drawn) registered a pKb of 5.2. The inhibition in series [1] worked out at 98%.
With `CCCOC(c1ccc(Br)cc1)C(SC(C)(C)C)n1cnc(C)c1` (stereo not drawn), the negative logarithm of the Kb (pKb) in the series on Platelet was determined as 5.99. Further, the remaining at 1 h in series [2] was 23%; in series [3] it was 0%. In the series on Rattus norvegicus, the Activity worked out at 0%. For the same compound, the inhibition in series [1] stood at 76%.
Compound `CCCOC(c1ccc(Cl)cc1Cl)C(SC(C)(C)C)n1cnc(C)c1` (stereo not drawn) gave a negative-log Kb (pKb) in the series on Platelet of 5.95. Besides, the remaining at 1 h was determined as 28% in series [2] and 2% in series [3]. For the same compound, in the series on Rattus norvegicus, the Activity came out at 7%. The inhibition in series [1] was 88%.
Regarding `CCOC(c1ccc(Cl)cc1)C(SC(C)(C)C)n1cnc(C)c1` (stereo not drawn), the pKb in the series with Platelet came to 5.36. The inhibition in series [1] turned out to be 92%.
With `CC(C)(C)SC(C(OCc1ccccc1)c1ccc(Cl)cc1)n1ccnc1` (stereo not drawn), in series [1], the inhibition stood at 23%.
In the series on Platelet, `CCOC(c1ccc(C(F)(F)F)cc1)C(OC(C)(C)C)n1cnc(C)c1` (stereo not drawn) registered a pKb of 5.2. For the same compound, the inhibition in series [1] is 98%.
Consider `CCOC(c1ccc(Cl)cc1)C(n1ccnc1)S(=O)(=O)C(C)(C)C` (stereo not drawn), for which the remaining at 1 h in series [2] stood at 35%; in series [3], 47%. Also, the inhibition in series [1] is 13%.
Consider `CCOC(c1ccc(Br)cc1)C(SC(C)(C)C)n1ccnc1` (stereo not drawn), for which, in the series on Platelet, the pKb is reported as 5.06. Also, the inhibition in series [1] turned out to be 100%.
In the series with Platelet, `CCCOC(c1ccc(Cl)c(Cl)c1)C(OC(C)(C)C)n1cnc(C)c1` (stereo not drawn) displayed a pKb of 5.73. In addition, the remaining at 1 h in series [2] came out at 23%; in series [3], 3%. Besides, the Activity in the series on Rattus norvegicus worked out at 43%. Moreover, the inhibition in series [1] is 81%.
Regarding `CCOC(c1ccc(Cl)cc1)C(SC(C)(C)C)n1ccnc1C` (stereo not drawn), in series [1], the inhibition was 63%.
With `CCOC(c1ccc2c(c1)OCCO2)C(SC(C)(C)C)n1ccnc1` (stereo not drawn), the pKb in the series with Platelet is listed as 4.79. Moreover, the inhibition in series [1] was found to be 88%.
With `CCOC(c1ccc(Cl)cc1)C(SC(C)(C)C)n1cnc(C)c1C` (stereo not drawn), in series [1], the inhibition was determined as 64%.
`CCCCSC(C(OCC)c1ccc(Cl)cc1)n1ccnc1` (stereo not drawn): the pKb in the series on Platelet worked out at 4.58. Besides, the inhibition in series [1] was 76%.
With `CCOC(c1ccc(Cl)cc1)C(SC(C)C)n1ccnc1` (stereo not drawn), the inhibition in series [1] came to 40%.
Consider `CCOC(c1ccc(Cl)cc1)C(SC(C)(C)C)n1cnc(Cl)c1` (stereo not drawn), for which the pKb in the series with Platelet was 4.6. Besides, the inhibition in series [1] amounted to 96%.
With `CCOC(c1ccc(Br)cc1)C(SC(C)(C)C)n1cnc(C)c1` (stereo not drawn), the negative logarithm of the Kb (pKb) with Platelet is recorded as 5.73. For the same compound, the inhibition in series [1] came to 100%.
As for `CCCOC(c1ccc(F)cc1)C(OC(C)(C)C)n1ccnc1` (stereo not drawn), in series [1], the inhibition amounted to 18%.
On to `CCOC(c1ccc(Cl)cc1Cl)C(SC(C)(C)C)n1cnc(C)c1` (stereo not drawn), for which the pKb in the series with Platelet is on record as 5.84. The inhibition in series [1] was found to be 93%.
With `CCOC(c1cccc(OC)c1)C(SC(C)(C)C)n1ccnc1` (stereo not drawn), the pKb in the series on Platelet was 0. Also, in series [1], the inhibition was 76%.
In the case of `CCOC(c1ccc(Cl)cc1)C(SC(C)(C)C)n1cnnc1` (stereo not drawn), in series [1], the inhibition amounted to 34%.
Consider `CCOC(c1ccc(Cl)cc1)C(CC(C)(C)C)n1ccnc1` (stereo not drawn), for which, in the series on Platelet, the pKb came out at 4.12. Moreover, the remaining at 1 h in series [2] came out at 57%; in series [3], 3%. Besides, the inhibition in series [1] was 74%.
As for `CCOC(c1ccc(C(=O)OC)cc1)C(SC(C)(C)C)n1ccnc1` (stereo not drawn), the inhibition in series [1] worked out at 37%.
With `CCOC(c1ccc(Cl)cc1)C(SC(C)(C)C)n1cncc1Cl` (stereo not drawn), the inhibition in series [1] amounted to 59%.
In turn, `CCOC(c1ccc(C(F)(F)F)cc1)C(SC(C)(C)C)n1ccnc1` (stereo not drawn) gave a negative-log Kb (pKb) in the series with Platelet of 5.38. The inhibition in series [1] came to 100%.
As to `CCOC(c1ccccc1)C(SC(C)(C)C)n1ccnc1` (stereo not drawn), the pKb in the series on Platelet turned out to be 4.46. Also, in series [1], the inhibition worked out at 92%.
Take `CCOC(c1ccc(Cl)cc1)C(n1ccnc1)[S+]([O-])C(C)(C)C` (stereo not drawn): the remaining at 1 h came to 59% in series [2] and 39% in series [3]. For the same compound, in series [1], the inhibition amounted to 15%.
As to `CCOC(c1ccc(Cl)cc1)C(SC(C)(C)C)n1cccn1` (stereo not drawn), the inhibition in series [1] is 0%.
Turning to `CCOC(c1ccccc1[N+](=O)[O-])C(SC(C)(C)C)n1ccnc1` (stereo not drawn), in series [1], the inhibition turned out to be 33%.
Turning to `COC(c1ccc(Cl)cc1)C(SC(C)(C)C)n1cnc(C)c1` (stereo not drawn), the pKb in the series on Platelet is reported as 4.42. Besides, the inhibition in series [1] stood at 96%.
With `CCCOC(c1ccc(Cl)cc1)C(SC(C)(C)C)n1cnc(C)c1` (stereo not drawn), the negative-log Kb (pKb) in series [4] amounted to 5.51; with Platelet, 5.71. In addition, the remaining at 1 h in series [2] came out at 28%; in series [3] it was 0%. For the same compound, the Activity in the series on Rattus norvegicus was 45%. In addition, the inhibition in series [1] amounted to 99%.
In the series with Platelet, `COC(c1ccc(Cl)cc1)C(SC(C)(C)C)n1ccnc1` (stereo not drawn) gave a negative logarithm of the Kb (pKb) of 5.24. Further, in series [1], the inhibition was 95%.
Consider `CCOC(c1ccc(Cl)cc1Cl)C(OC(C)(C)C)n1cnc(C)c1` (stereo not drawn), for which the pKb in the series on Platelet is given as 5.32. The remaining at 1 h worked out at 57% in series [2] and 3% in series [3]. For the same compound, the Activity in the series with Rattus norvegicus worked out at 0%. Further, in series [1], the inhibition was determined as 98%.
In the series with Platelet, `CCCOC(c1ccccc1Cl)C(SC(C)(C)C)n1cnc(C)c1` (stereo not drawn) had a negative-log Kb (pKb) of 5.14. Also, in series [1], the inhibition came to 97%.
In the series with Platelet, `CCCOC(c1ccc(Cl)cc1)C(SC(C)(C)C)n1ccnc1` (stereo not drawn) had a negative logarithm of the Kb (pKb) of 5.01. Also, the inhibition in series [1] came to 96%.
`CCOC(c1ccc(Cl)cc1)C(SC(C)(C)C)n1cnc(C(F)(F)F)c1` (stereo not drawn): the inhibition in series [1] was determined as 20%.
